From US7052859B2, “MUCIN 4 expression as a marker for pancreatic cancer” (The Board of Regents of the University of Nebraska, priority 2000, dated 2006)
Ends that are not written are not given here.

Key:
MUC4 peptides = test: Immunogenicity of KLH-conjugated MUC4 peptides in rabbits (serum antibody titre); type: in vivo, rabbit; conditions: ten weeks after immunization with KLH-conjugated peptide
Procedure: The present invention also provides antibodies capable of immunospecifically binding to MUC4. Polyclonal antibodies directed toward human MUC4 protein may be prepared according to standard methods. In a preferred embodiment, monoclonal antibodies are prepared, which react immunospecifically with the various epitopes of the MUC4 protein. Monoclonal antibodies have been prepared according to general methods of Kohler and Milstein, following standard protocols.

[1] = tested on: MUC4 mRNA expression in PBMC; test: MUC4 mRNA expression (RT-PCR) in PBMC from healthy volunteers after incubation with cytokines, growth factors or mitogens; type: cell-based, human; conditions: incubated 24 and 48 hours, serum free, retinoic acid 100 nM, 1 μM, TGF-β2 10, 20 and 200 pg/ml
Procedure: Freshly prepared PBMC (10×10^6 cells) from healthy volunteers were stimulated with PHA (10 μg/ml) and LPS (20 μg/ml, all from Sigma) for 12 and 24 hours. To study the effect of different cytokines and growth factors on the MUC4 mRNA expression, 10 million PBMC were incubated with TGF-β1 (10; 20 and 200 pg/ml), TGF-β2 (10; 20 and 200 pg/ml) (all from R&D systems, Minneapolis, Minn.), retinoic acid (RA) (100 nM; 1 μM) (Sigma), GM-CSF (100 U/ml) (Immunex Corp. Seattle, Wash.), IL-1β (10 ng/ml), IL-6 (10 ng/ml), IL-9 (50 ng/ml), IFNγ (10 and 20 ng/ml), TNFα (10 and 50 ng/ml) or with IFNγ (10 and 20 ng/ml) in combination with TNFα (10 and 50 ng/ml) (all from PeproTech Inc., Rocky Hill, N.J.) for 24 and 48 hours under serum free conditions.
The single step RNA isolation method was used for RNA preparation as previously described (28,29). In brief, cells were homogenized in a denaturing solution containing 4 M guanidine thiocyanate. The homogenate was mixed sequentially with 2 M sodium acetate (pH 4), phenol and chloroform/isoamyl alcohol. […] The RNA pellet was then resuspended in diethyl pyrocarbonate (DEPC)-treated water, and the final RNA concentration was determined spectrophotometrically by measuring the absorbance at 260 nm and 280 nm (DU 640B, Beckman Coulter, Fullstone Calif.). […]

[2] = tested on: MUC4 expression in pancreatic cancer cells; conditions: previous work (31); cited from earlier work

Molecule	antibody titre of rabbit sera reacting specifically with the peptide (MUC4 peptides)	induction of MUC4 mRNA expression in PBMC [1]	MUC4 expression after treatment [2]
ATYRPPQPAWMFGD (also: KLH conjugate; listed as Homo sapiens) [MUC4 α, MUC4 peptide synthesized and conjugated to the KLH protein as an immunogen]	47,338 units	–	–
GARFSYFLNSAEALP (also: KLH conjugate; listed as Homo sapiens) [MUC4 β, MUC4 peptide synthesized and conjugated to the KLH protein as an immunogen]	31,108 units	–	–
TGF-β2: growth factor from R&D systems; produced and secreted by pancreatic cancer cell lines (protein, UniProt P61812 303-414, looked up) Transforming growth factor …: ALDAAYCFRNVQDNCCLRPLYIDFKRDLGWKWIHEPKGYNANFCAGACPYLWSSDTQHSRVLSLYNTINPEASASPCCVSQDLEPLTILYYIGKTPKIEQLSNMIVKSCKCS	–	neither incubation with retinoic acid and TGF-β2 nor the activation of T-cells and B-cells with PHA and LPS or incubation with various other cytokines induced MUC4 mRNA expression	resulted in MUC4 expression
